These results are taken from US10294488B2, “Herbicide-metabolizing cytochrome P450 monooxygenases” (BASF SE, priority 2012, dated 2019).

For one series, the system named is AmCYP12_1 (Seq ID 45). The experiment in a line: Herbicide degradation in transgenic yeast cells expressing cytochrome P450 AmCYP12_1. The series is classed as in vitro ADME, Alopecurus myosuroides. Particulars: transgenic yeast cells (S. cerevisiae BJ5459) expressing AmCYP12_1, Seq ID 45, recovery of herbicide in reference to control, UPLC-MS/MS. The text has this: (§1) The cDNA of CYP450 monooxygenase genes were synthesized with an optimized codon usage for yeast, cloned via uniqueBamHI-SalI restriction sites in the low copy pESC-ura expression vector (Agilent Technologies). Constructs were transformed into S. cerevisiae wild type strain BJ5459 (MATa ura3-5 trp lys2-801 leu2Δ1 his3Δ200 pep4Δ::HIS3 prb1Δ1.6R can1 GAL cir^+; ATCC 208284) using a Yeast Maker Transformation System from Clontech and verified by colony PCR. Positive clones were selected on minimal synthetic-defined media (SD) supplemented with appropriate dropout solution. The strain had no obvious phenotypes. Cells were induced in SG-Ura medium (same composition as SD but with galactose instead of glucose) for 24 h (Pompon et al., Methods in Enzymology 272:51-64 (1996); Urban et al., Eur. J. Biochem. 222:[…] (1994)). Optimal heterologous protein expression was assayed using Western Blot analysis.
(§2) 96 deep well growth plates (STARLAB GmbH) charged with 700 μL SDA medium are inoculated with the respective yeast strains from cryostock and incubated at 30° C., 400 rpm. After 48 h, an aliquot is transferred into a new plate with fresh SDA medium 400 rpm. After 4 h the cultures are spun down, the supernatant discarded and the pellets resuspended in 700 μL pre-warmed SGA media to induce protein expression at 30° C. and 400 rpm. After an incubation time of 24 h, 7 μL herbicide solution (500 μM DMSO stock solution) or solvent control is added to the yeast culture incubated for additional 24 h. The herbicide conversion is stopped by adding 700 μL acetonitrile followed by ultrasonification. The homogenate is prepared for UPLC-MS/MS analysis. The degradation rate was calculated by the determination of the recovery of the herbicide in reference to the control.

In another series the test system is AmCYP01 (Seq ID 2). Description: Herbicide degradation in transgenic yeast cells expressing cytochrome P450 AmCYP01. The series is classed as in vitro ADME, Alopecurus myosuroides. The following applies: transgenic yeast cells (S. cerevisiae BJ5459) expressing AmCYP01, Seq ID 2, recovery of herbicide in reference to control, UPLC-MS/MS.
Description: as §1, §2

In the next series the test system is AmCYP03b (Seq ID 6). The experiment in a line: Herbicide degradation in transgenic yeast cells expressing cytochrome P450 AmCYP03b. The format is in vitro ADME, Alopecurus myosuroides. Particulars: transgenic yeast cells (S. cerevisiae BJ5459) expressing AmCYP03b, recovery of herbicide in reference to control, UPLC-MS/MS.
Description: as §1, §2

The test system of series [1] is transgenic plants expressing Am_CYP04 (SEQ ID 27). The experiment in a line: Greenhouse herbicide tolerance of transgenic plants expressing Am_CYP04 (FIG. 2). The following applies: plants expressing Am_CYP04 (SEQ ID 27) vs wildtype, different application rates (g/ha). The series is classed as in vivo, Arabidopsis thaliana. The protocol:
(§3) Transgenic Arabidopsis thaliana plants were assayed for improved tolerance to saflufenacil, 1,5-dimethyl-6-thioxo-3-(2,2,7-trifluoro-3-oxo-4-(prop-2-ynyl)-3,4-dihydro-2H-benzo[b][1,4]oxazin-6-yl)-1,3,5-triazinane-2,4-dione (CAS 1258836-72-4), chlorotoluron, pendimethalin, flumioxazin, butafenacil, acifluorfen, lactofen, bifenox, diuron, sulfentrazon, tepraloxydim, coumarone-derivative herbicides, azine-derivative herbicides in 48-well plates. Therefore, T2 seeds are surface sterilized by stirring for 5 min in ethanol+water (70+30 by volume), rinsing one time with ethanol+water (70+30 by volume) and two times with sterile, deionized water. The seeds are resuspended in 0.1% agar dissolved in water (w/v) Four to five seeds per well are plated on solid nutrient medium consisting of half-strength murashige skoog nutrient solution, pH 5.8 (Murashige and Skoog (1962) Physiologia Plantarum 15: 473-497). Compounds are dissolved in dimethylsulfoxid (DMSO) and added to the medium prior solidification (final DMSO concentration 0.1%). Multi well plates are incubated in a growth chamber at 22° C., 75% relative humidity and 110 μmol Phot*m^2*s^−1 with 14:10 h light: dark photoperiod. Growth inhibition is evaluated seven to ten days after seeding in comparison to wild type plants. Additionally, transgenic T1 Arabidopsis plants were tested for improved tolerance to herbicides in greenhouse studies with the following herbicides: saflufenacil, 1,5-dimethyl-6-thioxo-3-(2,2,7-trifluoro-3-oxo-4-(prop-2-ynyl)-3,4-dihydro-2H-benzo[b][1,4]oxazin-6-yl)-1,3,5-triazinane-2,4-dione (CAS 1258836-72-4), chlorotoluron, pendimethalin, flumioxazin, butafenacil, acifluorfen, lactofen, bifenox, diuron, sulfentrazone, tepraloxydim, coumarone-derivative herbicides, azine-derivative herbicides.

For another series, the system named is AmCYP04 (Seq ID 27). The experiment in a line: Herbicide degradation in transgenic yeast cells expressing cytochrome P450 AmCYP04. The format is in vitro ADME, Alopecurus myosuroides. Particulars: transgenic yeast cells (S. cerevisiae BJ5459) expressing AmCYP04, Seq ID 27, recovery of herbicide in reference to control, UPLC-MS/MS.
Description: as §1, §2

The subject of the next series is AmCYP03_1 (Seq ID 4). The experiment in a line: Herbicide degradation in transgenic yeast cells expressing cytochrome P450 AmCYP03_1. The format is in vitro ADME, Alopecurus myosuroides. Particulars: transgenic yeast cells (S. cerevisiae BJ5459) expressing AmCYP03_1, Seq ID 4, recovery of herbicide in reference to control, UPLC-MS/MS.
Description: as §1, §2

Series [2] concerns transgenic plants expressing Am_CYP03 (SEQ ID 4). The experiment in a line: Greenhouse herbicide tolerance of transgenic plants expressing Am_CYP03 (FIG. 1). The format is in vivo, Arabidopsis thaliana. Particulars: plants expressing Am_CYP03 (SEQ ID 4) vs wildtype, different application rates (g/ha). How it is done:
as §3

The structures appear in SMILES notation.

Take `CC(C)N(C)S(=O)(=O)NC(=O)c1cc(-n2c(=O)cc(C(F)(F)F)n(C)c2=O)c(F)cc1Cl` [saflufenacil, reference compound]: the “Degradation rate of listed herbicidal compounds within 24 h” value (shortened to “Degradation rate”) is recorded as 20 with AmCYP12_1 (Seq ID 45); 20 with AmCYP01 (Seq ID 2); 9 in the series with AmCYP03b (Seq ID 6); 18 in the series with AmCYP04 (Seq ID 27); 10 in the series with AmCYP03_1 (Seq ID 4). Also, the “Phenotype (injury) of transgenic plants compared to non-transgenic plants” value (“Phenotype … compared to non-transgenic plants” below) in series [1] and in series [2] was “much less injured” in each case.

As for `C#CCN1C(=O)C(F)(F)Oc2cc(F)c(-n3c(=O)n(C)c(=S)n(C)c3=O)cc21` [1,5-dimethyl-6-thioxo-3-(2,2,7-trifluoro-3-oxo-4-(prop-2-ynyl)-3,4-dihydro-2H-benzo[b][1,4]oxazin-6-yl)-1,3,5-triazinane-2,4-dione, reference compound], the “Degradation rate” value in the series with AmCYP12_1 (Seq ID 45) came to 20; with AmCYP01 (Seq ID 2), 17; in the series on AmCYP03b (Seq ID 6), 21; with AmCYP04 (Seq ID 27) it was 24; in the series on AmCYP03_1 (Seq ID 4), 23. The “Phenotype … compared to non-transgenic plants” value in series [1] and in series [2] was “much less injured” throughout.

As to `Cc1ccc(NC(=O)N(C)C)cc1Cl` [Chlorotoluron, reference compound], the “Degradation rate” value in the series with AmCYP12_1 (Seq ID 45) is 22; in the series on AmCYP01 (Seq ID 2) it was 18; in the series with AmCYP03b (Seq ID 6), 29; with AmCYP04 (Seq ID 27), 26; with AmCYP03_1 (Seq ID 4), 32. The “Phenotype … compared to non-transgenic plants” value in series [1] and in series [2] was “much less injured” throughout.
